Test results: patent publication US5955497A, “Bioactive acetogenins” (Purdue Research Foundation, priority 1998, dated 1999)
Values after ≈ are worked out from the molar mass of the structure shown. “Also recorded” adds a separate entry of the source.

Columns and labels:
[1] = in vivo; design: species or system Artemia salina Leach (brine shrimp); conditions: brine shrimp larvae, read-out: BST LC30
Method: (§1) The cytotoxicities of squamotacin, molvizarin and bullatacin were evaluated, in the same run, against a panel of six cell lines (Table 1). Adriamycin was included as a standard. The relative cytotoxicity of the compounds to non-tumor cells was determined based on the brine shrimp lethality assay (BSA). The panel of tumor cell lines tested includes human lung carcinoma (A-549), human breast carcinoma (MCF-7), human colon adenocarcinoma (HT-29), human renal carcinoma (A-498), human prostate adenocarcinoma (PC-3) and human pancreatic carcinoma (PACA-2).
(§2) The brine shrimp (Artemia salina Leach) test (BST) was performed as modified to determine LC50 values in μg/ml. Zhao et al., Phytochemistry, 33, p. 1065 (1993). Seven-day in vitro cytotoxicity tests against human tumor cell lines were carried out at the Purdue Cancer Center, using standard protocols for A-549 (human lung carcinoma), MCF-7 (human breast carcinoma) and HT-29 (human colon carcinoma), human renal carcinoma (A-498), human prostate adenocarcinoma (PC-3) and human pancreatic carcinoma (PACA-2) with adriamycin as a positive control. The reported ED50 values in μg/ml (Table 1) were tabulated from the same run, except where noted, in order to facilitate comparison for the SAR's.

[2] = tested on: PC-3 (human prostate adenocarcinoma); assay: seven-day in vitro cytotoxicity, PC-3; assay type: cell-based; conditions: for activity relative to the positive control adriamycin: PC-3, versus adriamycin; for selectivity for the prostate cell line (PC-3): PC-3, versus other cell lines of Table 1
Method: as §1, §2

[3] = tested on: panel of six cell lines (A-549, MCF-7, HT-29, A-498, PC-3, PACA-2); assay: cytotoxicity against the panel of six human tumor cell lines; assay type: cell-based; conditions: for spectra of cytotoxic selectivities, squamotacin versus molvizarin: Table 1
Method: as §1, §2

[4] = tested on: A2780 human ovarian cancer xenografts; conditions: 50 μg/kg, athymic mice bearing A2780 human ovarian cancer xenografts; cited from earlier work

Structure (SMILES)	LC50 [1] [ng/mL]	activity relative to the positive control adriamycin [2]	selectivity for the prostate cell line (PC-3) [2]	spectra of cytotoxic selectivities, squamotacin versus molvizarin [3]	activity relative to bullatacin in the cell panel ([3]; six cell lines, versus bullatacin)	tumor growth inhibition (TGI) [4] [%]
CCCCCCCCCCCC[C@H](O)[C@H]1CC[C@H]([C@H]2CC[C@H]([C@H](O)CCCCCCCC[C@@H](O)CC3=C[C@H](C)OC3=O)O2)O1 [Compound 1, squamotacin]	6.8 (≈ 0.0109 µM)	over 100 million	high selectively for the prostate cell line (PC-3); also recorded: high selectivity	quite similar	less activity than bullatacin in five of the six cell lines tested, with HT-29 (colon) being the exception	–
CCCCCCCCCC[C@H](O)[C@H]1CC[C@H]([C@H]2CC[C@H]([C@H](O)CCCCCCCC[C@@H](O)CC3=C[C@H](C)OC3=O)O2)O1 [Compound 2, molvizarin]	–	over 100 million	high selectively for the prostate cell line (PC-3); also recorded: showed selectivity for PC-3; also recorded: high selectivity	quite similar	–	–
CCCCCCCCCC[C@H](O)[C@H]1CC[C@H]([C@H]2CC[C@H]([C@H](O)CCCCCCCCCC[C@@H](O)CC3=C[C@H](C)OC3=O)O2)O1 [Compound 3, bullatacin]	–	–	–	–	–	67
